Values of other authors, collected in paper PMC3384292 (Journal of the American Chemical Society, 2012).

Molecular target: thrombin (Homo sapiens, UniProt P00734)

In the case of hirudin, the “inhibition constant to thrombin” value is given as “femtomolar”.
